Source: ChEMBL document CHEMBL1150707, “Isolation, structure, and synthesis of combretastatins A-1 and B-1, potent new inhibitors of microtubule assembly, derived from Combretum caffrum” (1987)
In brackets after ≈: the same amount, converted by molar mass. Activity calls are given as the source filed them. The rule behind the calls is not given here.

Tests used:
P388 [1] = assay: In vivo cytotoxicity against mouse P388 cells; format: functional
[2] = Displacement of [3H]colchicine from tubulin after 10 mins relative to control; parameters: concentration or dose not given beside the values
[3] = Inhibition of microtubule assembly by turbidimetry
P388 [4] = assay: In vivo cytotoxicity against mouse P388 cells assessed as increase in life extension at 2.75 to 11 mg/kg; format: functional; conditions: dose mg/kg 2.75-11

In the case of COc1cc(/C=C/c2ccc(OC)c(O[Si](C)(C)C(C)(C)C)c2O[Si](C)(C)C(C)(C)C)cc(OC)c1OC, the ED50 (P388 [1]) is reported as “inactive”.
COc1cc(/C=C\c2ccc(OC)c(OC(C)=O)c2OC(C)=O)cc(OC)c1OC showed an ED50 (P388 [1]) of 2.7 µg/mL (≈ 6.48 µM).
Work on COc1ccc(CCc2cc(OC)c(OC)c(OC)c2)c(O)c1O yielded an Activity [2] of 13% and an ID50 [3] of 3 µM.
For COc1cc([C@@H]2c3cc4c(cc3[C@H](O)[C@H]3COC(=O)[C@H]23)OCO4)cc(OC)c1OC, the Activity [2] was 13% and the ID50 [3] was 3 µM.
Molecule COc1cc2c(c(OC)c1OC)-c1cc3c(cc1[C@@H](OC(C)=O)C1COC(=O)[C@H]1C2)OCO3 (some centres not stated) has an Activity [2] of 49% and an ID50 [3] of 6 µM.
Work on COc1cc2c(c(OC)c1OC)-c1ccc(OC)c(=O)cc1[C@@H](NC(C)=O)CC2 yielded an ID50 [3] of 6 µM.
Work on COc1ccc(/C=C\c2cc(OC)c(OC)c(OC)c2)c(O)c1O [COMBRETASTATIN A-1] yielded an ED50 (P388 [1]) of 0.99 µg/mL (≈ 2.98 µM), an Activity [2] of 2.2% and an ID50 [3] of 2 µM. The Activity (P388 [4]) was 26%.
Molecule COc1cc(/C=C/c2ccc(OC)c(OC(C)=O)c2OC(C)=O)cc(OC)c1OC has an ED50 (P388 [1]) of 12 µg/mL (≈ 28.8 µM).
In the case of COc1cc(/C=C\c2ccc(OC)c(O[Si](C)(C)C(C)(C)C)c2O[Si](C)(C)C(C)(C)C)cc(OC)c1OC, the ED50 (P388 [1]) is reported as “inactive”.
For COc1ccc(C[C@@H](O)c2cc(OC)c(OC)c(OC)c2)cc1O, the Activity [2] was 34% and the ID50 [3] was 11 µM.
